Laboratory results as given in patent publication US4649131A, “Growth hormone releasing factor analogs” (Hoffmann-La Roche Inc., priority 1985, dated 1987).
No end group written: not given here.

Experiments:
[1] = system: release of growth hormone; settings: Rivier and Vale et al., Nature 300, 276-278 (1982); cited from earlier work
rat pituitary cells = experiment: stimulation of growth hormone production in rat pituitary cells in tissue culture (RIA for rat growth hormone); type: cell-based
Experimental: Biological activity of the synthetic GRF(1-44)NH2 was identical to the natural GRF(1-44)NH2 which was isolated from a human pancreatic tumor of an individual suffering from acrommegaly (Salk Institute standard hGRF-NH2 (NL-A-10)). The assay for biological activity, which is based on the ability to stimulate production of growth hormone in rat pituitary cells in tissue culture, was performed in the following manner.
Pituitaries from 30-40 male Sprague-Dawley rats (175 g) were removed aseptically after decapitation. The anterior lobes were collected, washed 3 times in sterile Hepes buffer (0.025M) (pH 7.35) and dispersed at 37° C. in 20-30 ml Hepes buffer (pH 7.35) containing collagenase (4 mg per ml) and Dispase (Protease grade II, 2 mg per ml). After gentle 100-110-min. vortexing and trituration by Pasteur pipette, the dispersed cells were separated by centrifugation (150×g, 4 min) and re-suspended in Hepes buffer containing neuraminidase ([…]), and 200 µg/ml ethylenediaminetetraacetic acid (EDTA) disodium salt pH 7.35, for 10 min. The cells were washed twice with plating medium and plated on multiwell-plates (1.5×10^5 cells per ml) using the following defined medium: F-12/DMEM/BGJ (6:3:1) (Gibco: 430-1700/430-1600/320-2591) with 2 g BSA/1., 2.38 g Hepes/1.50 mg PSN antibiotic mixture (Gibco Laboratories), 10 mg/l transferrin (Sigma T2252) with 1.83 gm NazHCO3/l (Baker 3506). The medium in each well was supplemented either with a sample of the novel GRF peptide or natural GRF(1-44)-NH2 at concentrations ranging from 0.8 to 200 fmol. per ml. of medium. Control wells contained no supplement. Plating was done with this medium added with 2% fetal calf serum to ensure rapid fixation of the cells. On the fourth day the cells were washed twice with the defined medium without fetal calf serum. Finally 900 μl of defined medium was added to each well plus 100 μl of the same medium containing each individual treatment, in triplicate. After 4 hours of incubation the medium was collected and diluted as required to conduct radioimmunoassay (RIAs) for rat growth hormone. […]

For GRF(1-29)-NH2, the “intrinsic activity and potency in vitro” value [1] is listed as “full intrinsic activity and potency”.
With “YADAIFTNSYRKVLAQLSARKLLQDIMSR-NH2 [(Ala^15)GRF(1-29)NH2, [Ala^15]-hGRF(1-29)-NH2]” the “potency compared to GRF(1-44)NH2” value (rat pituitary cells; relative to GRF(1-44)NH2, on a weight for weight basis, 4 hours of incubation) was 4.1 times and the “potency compared to GRF(1-29)NH2” value (rat pituitary cells; relative to unsubstituted shortened GRF(1-29)NH2, 4 hours of incubation) was 5.1 times.
In the case of `CC[C@H](C)[C@H](NC(=O)[C@H](C)NC(=O)[C@H](CC(=O)O)NC(=O)[C@H](C)NC(=O)[C@@H](N)Cc1ccc(O)cc1)C(=O)N[C@@H](Cc1ccccc1)C(=O)N[C@H](C(=O)N[C@@H](CC(N)=O)C(=O)N[C@@H](CO)C(=O)N[C@@H](Cc1ccc(O)cc1)C(=O)N[C@@H](CCCNC(=N)N)C(=O)N[C@@H](CCCCN)C(=O)N[C@H](C(=O)N[C@@H](CC(C)C)C(=O)NCC(=O)N[C@@H](CCC(N)=O)C(=O)N[C@@H](CC(C)C)C(=O)N[C@@H](CO)C(=O)N[C@@H](C)C(=O)N[C@@H](CCCNC(=N)N)C(=O)N[C@@H](CCCCN)C(=O)N[C@@H](CC(C)C)C(=O)N[C@@H](CC(C)C)C(=O)N[C@@H](CCC(N)=O)C(=O)N[C@@H](CC(=O)O)C(=O)N[C@H](C(=O)N[C@@H](CCSC)C(=O)N[C@@H](CO)C(=O)N[C@@H](CCCNC(=N)N)C(=O)N[C@@H](CCC(N)=O)C(=O)N[C@@H](CCC(N)=O)C(=O)NCC(=O)N[C@@H](CCC(=O)O)C(=O)N[C@@H](CO)C(=O)N[C@@H](CC(N)=O)C(=O)N[C@@H](CCC(N)=O)C(=O)N[C@@H](CCC(=O)O)C(=O)N[C@@H](CCCNC(=N)N)C(=O)NCC(=O)N[C@@H](C)C(=O)N[C@@H](CCCNC(=N)N)C(=O)N[C@@H](C)C(=O)N[C@@H](CCCNC(=N)N)C(=O)N[C@@H](CC(C)C)C(N)=O)[C@@H](C)CC)C(C)C)[C@@H](C)O` [synthetic GRF(1-44)NH2, GRF(1-44)-NH2], the “biological activity compared with natural GRF(1-44)NH2” value (rat pituitary cells; versus natural GRF(1-44)NH2 isolated from a human pancreatic tumor (Salk Institute standard NL-A-10)) was “identical”.
